# Values joined by “and” are separate entries in the source; they are usually repeats but may differ in a detail not shown here. Equal entries are not always repeated. Where two headings read alike, the source gives them in different places.
# Tests used:
# [1] = Phase I clinical trial: safety and tolerability of C21 in healthy subjects; assay type: in vivo, human; conditions: healthy male and female subjects, gradual escalation of dose
# Experimental: A Phase I clinical trial was conducted to evaluate the safety, tolerability, and pharmacokinetics of C21 in healthy male and female subjects. The study design allowed a gradual escalation of dose with intensive clinical data and PK monitoring to ensure the safety and wellbeing of subjects.
# The study was designed and conducted in accordance with the CRO's standard operating procedures (SOPs), which comply with the ethical principles laid down in the International Council for Harmonisation (ICH) Good Clinical Practice (GCP) guidance as required by the major regulatory authorities, and in accordance with the Declaration of Helsinki as amended by the 48th General Assembly in October 1996.
# [2] = Phase I clinical trial, food effect part: pharmacokinetics of C21 fed vs fasted; assay type: in vivo, human; conditions: for AUC(0-t) / AUC(0-inf) / Cmax / Vd/F / half-life / Tmax: both sexes, human, plasma; for Tmax: read-out: tmax, Median
# Experimental: In addition, the effect of food on the pharmacokinetics (PK) of C21 was investigated in an open label manner in 10 male and female subjects at a single oral dose of 75 mg.
# Subjects were to receive two single doses of 75 mg of C21 at least 3 days apart in a randomised fashion either in fasted or in fed state. A Food and Drug Administration (FDA)-recommended high-fat breakfast was used to investigate maximum effects.
# In the food effect part of the study, the subjects' ages ranged from 22 to 44 years with a median age of 36.0 years. Most of the subjects were Caucasian (9 (90.0% of) subjects) and male (8 (80.0% of) subjects). The mean (SD) BMI of overall subjects was 23.96 (2.223) kg/m^2.
# C21 sodium salt as a pre-frozen oral solution (comprising 2.5 mg/mL C21 sodium salt sodium salt dissolved in an aqueous carbonate buffer) with a composition as shown in Table 1 below.
# Plasma concentrations below the lower limit of quantification (LLOQ) were presented as below the lower limit of quantification (BLQ). Plasma concentrations for C21 were summarised by study part, dose cohort and nominal time point.
# Pharmacokinetic parameters were calculated by non-compartmental analysis methods from the concentration-time data using Phoenix® WinNonlin® (Version 8.0) or higher following these guidelines: • Actual sampling times relative to dosing rather than nominal times were used in the calculation of all derived pharmacokinetic parameters. • There was no imputation of missing data. • Any subjects with missing concentration data were included in the PK analysis set provided that at least Cmax and AUC(0-t) could be reliably calculated.
# All BLQ values pre-dose and in the absorption phase prior to the first quantifiable concentration were substituted by zeros. Single BLQs that fell between two evaluable concentrations were substituted by missing, before the calculation of the PK variables. Consecutive BLQs that fell between evaluable concentrations were substituted by zero, before the calculation of the PK variables. Terminal BLQ values were disregarded.
# Bioequivalence of PK parameters from the open label food effect arm were determined by constructing 90% confidence intervals around the estimated difference between the Test and Reference treatments using a mixed effects model based on natural log transformed data. The mixed effects model was implemented using SAS Proc Mixed, with REML estimation method and Kenward-Roger degrees of freedom algorithm.
# Natural logarithm transformed AUC(0-inf) (if data permitted), AUC(0-24) and Cmax were analysed using a mixed effects model with sequence, period and treatment as fixed effects and subject within sequence as a random effect. Estimates of the mean differences (Test-Reference) and corresponding 90% confidence intervals were obtained from the model. The estimated mean differences and 90% confidence intervals for the differences were exponentiated to provide estimates of the ratio of geometric means (Test/Reference) and 90% confidence intervals for the ratios. C21 in the fasted state is the Reference treatment and C21 in the fed state is the Test treatment.
# The comparisons assessing the food effect (bioequivalence) were used to assess the effect of food on the rate and extent of absorption of C21 administered under fasted and fed conditions with estimates of the mean differences as well as corresponding 90% confidence intervals being presented.
# The model is a mixed analysis of variance (ANOVA) model with a fixed term for sequence, period, treatment, and a random effect for subject within sequence.
# [3] = 75 mg, fed (Test) vs fasted (Reference)
# [4] = 75 mg, higher for the fed treatment
# [5] = single oral dose 75 mg, Fasted, N = 9
# [6] = single oral dose 75 mg, Fed, N = 10
smiles,measurement,setting,value
"CCCCOC(=O)NS(=O)(=O)c1sc(CC(C)C)cc1-c1ccc(Cn2ccnc2)cc1 [C21, N-butyloxycarbonyl-3-(4-imidazol-1-ylmethylphenyl)-5-iso-butylthiophene-2-sulfonamide]",safety and tolerability,[1],safe and generally well tolerated
same,serious adverse events,[1],No serious adverse events
same,"AUC(0-24), Geometric Mean Ratio (Fed:Fasted)",[2]; [3],0.45 and 0.449
same,"AUC(0-inf), Geometric Mean Ratio (Fed:Fasted)",[2]; [3],0.45 and 0.449
same,"Cmax, Geometric Mean Ratio (Fed:Fasted)",[2]; [3],0.16 and 0.155
same,"CL/F, fed treatment compared to fasted treatment",[2]; [4],approximately 2 fold
same,"VZ/F, fed treatment compared to fasted treatment",[2]; [4],3 fold
same,food effect on pharmacokinetics,[2]; Phase I clinical trial in healthy subjects,a pronounced food effect was observed
same,AUC(0-t),"[2]; oral, 75 mg, Fasted (N = 9), mixed ANOVA model, read-out: AUC(0-24), Geometric Mean (95% CI), mixed effects model",1710 ng·h/mL
same,AUC(0-inf),"[2]; oral, 75 mg, Fasted (N = 9), mixed ANOVA model, read-out: AUC(0-inf), Geometric Mean (95% CI), mixed effects model",1710 ng·h/mL
same,Cmax,"[2]; oral, 75 mg, Fasted (N = 9), mixed ANOVA model, read-out: Cmax, Geometric Mean (95% CI), mixed effects model",1700 ng/mL
same,AUC(0-t),"[2]; oral, 75 mg, Fed (N = 10), mixed ANOVA model, read-out: AUC(0-24), Geometric Mean (95% CI), mixed effects model",768 ng·h/mL
same,AUC(0-inf),"[2]; oral, 75 mg, Fed (N = 10), mixed ANOVA model, read-out: AUC(0-inf), Geometric Mean (95% CI), mixed effects model",769 ng·h/mL
same,Cmax,"[2]; oral, 75 mg, Fed (N = 10), mixed ANOVA model, read-out: Cmax, Geometric Mean (95% CI), mixed effects model",263 ng/mL
same,Cmax,"[2]; po, 75 mg, single oral dose 75 mg, Fasted, N = 9, plasma, read-out: Cmax, Arithmetic Mean",1810 ng/mL
same,Cmax,"[2]; po, 75 mg, single oral dose 75 mg, Fasted, N = 9, plasma, read-out: Cmax, Geometric Mean",1710 ng/mL
same,AUC(0-t),"[2]; po, 75 mg, single oral dose 75 mg, Fasted, N = 9, read-out: AUC(0-6), Arithmetic Mean",1850 ng·h/mL
same,AUC(0-t),"[2]; po, 75 mg, single oral dose 75 mg, Fasted, N = 9, read-out: AUC(0-6), Geometric Mean",1760 ng·h/mL
same,AUC(0-t),"[2]; po, 75 mg, single oral dose 75 mg, Fasted, N = 9, read-out: AUC(0-12), Arithmetic Mean",1860 ng·h/mL
same,AUC(0-t),"[2]; po, 75 mg, single oral dose 75 mg, Fasted, N = 9, read-out: AUC(0-12), Geometric Mean",1770 ng·h/mL
same,AUC(0-t),"[2]; po, 75 mg, single oral dose 75 mg, Fasted, N = 9, read-out: AUC(0-24), Arithmetic Mean",1860 ng·h/mL
same,AUC(0-inf),"[2]; po, 75 mg, single oral dose 75 mg, Fasted, N = 9, read-out: AUC(0-inf), Arithmetic Mean",1860 ng·h/mL
same,AUC(0-inf),"[2]; po, 75 mg, single oral dose 75 mg, Fasted, N = 9, read-out: AUC(0-inf), Geometric Mean",1770 ng·h/mL
same,AUC(0-t),"[2]; po, 75 mg, single oral dose 75 mg, Fasted, N = 9, read-out: AUC(0-t), Arithmetic Mean",1840 ng·h/mL
same,AUC(0-t),"[2]; po, 75 mg, single oral dose 75 mg, Fasted, N = 9, read-out: AUC(0-t), Geometric Mean",1750 ng·h/mL
same,Vd/F,"[2]; po, 75 mg, single oral dose 75 mg, Fasted, N = 9, read-out: Vz/F, Arithmetic Mean",36.6 L
same,Vd/F,"[2]; po, 75 mg, single oral dose 75 mg, Fasted, N = 9, read-out: Vz/F, Geometric Mean",34.8 L
same,half-life,"[2]; po, 75 mg, single oral dose 75 mg, Fasted, N = 9, read-out: t1/2, Arithmetic Mean",< 60 min
same,half-life,"[2]; po, 75 mg, single oral dose 75 mg, Fasted, N = 9, read-out: t1/2, Geometric Mean (converted)",34.1 min
same,Tmax,"[2]; po, 75 mg, single oral dose 75 mg, Fasted, N = 9",40.2 min
same,Cmax,"[2]; po, 75 mg, single oral dose 75 mg, Fed (high-fat breakfast), N = 10, plasma, read-out: Cmax, Arithmetic Mean",269 ng/mL
same,Cmax,"[2]; po, 75 mg, single oral dose 75 mg, Fed (high-fat breakfast), N = 10, plasma, read-out: Cmax, Geometric Mean",263 ng/mL
same,AUC(0-t),"[2]; po, 75 mg, single oral dose 75 mg, Fed, N = 10, read-out: AUC(0-6), Arithmetic Mean",747 ng·h/mL
same,AUC(0-t),"[2]; po, 75 mg, single oral dose 75 mg, Fed, N = 10, read-out: AUC(0-6), Geometric Mean",732 ng·h/mL
same,AUC(0-t),"[2]; po, 75 mg, single oral dose 75 mg, Fed, N = 10, read-out: AUC(0-12), Arithmetic Mean",790 ng·h/mL
same,AUC(0-t),"[2]; po, 75 mg, single oral dose 75 mg, Fed, N = 10, read-out: AUC(0-12), Geometric Mean",767 ng·h/mL
same,AUC(0-t),"[2]; po, 75 mg, single oral dose 75 mg, Fed, N = 10, read-out: AUC(0-24), Arithmetic Mean",792 ng·h/mL
same,AUC(0-t),"[2]; po, 75 mg, single oral dose 75 mg, Fed, N = 10, read-out: AUC(0-24), Geometric Mean",768 ng·h/mL
same,AUC(0-inf),"[2]; po, 75 mg, single oral dose 75 mg, Fed, N = 10, read-out: AUC(0-inf), Arithmetic Mean",792 ng·h/mL
same,AUC(0-inf),"[2]; po, 75 mg, single oral dose 75 mg, Fed, N = 10, read-out: AUC(0-inf), Geometric Mean",768 ng·h/mL
same,AUC(0-t),"[2]; po, 75 mg, single oral dose 75 mg, Fed, N = 10, read-out: AUC(0-t), Arithmetic Mean",767 ng·h/mL
same,AUC(0-t),"[2]; po, 75 mg, single oral dose 75 mg, Fed, N = 10, read-out: AUC(0-t), Geometric Mean",742 ng·h/mL
same,Vd/F,"[2]; po, 75 mg, single oral dose 75 mg, Fed, N = 10, read-out: Vz/F, Arithmetic Mean",120 L
same,Vd/F,"[2]; po, 75 mg, single oral dose 75 mg, Fed, N = 10, read-out: Vz/F, Geometric Mean",118 L
same,half-life,"[2]; po, 75 mg, single oral dose 75 mg, Fed, N = 10, read-out: t1/2, Arithmetic Mean",< 60 min
same,half-life,"[2]; po, 75 mg, single oral dose 75 mg, Fed, N = 10, read-out: t1/2, Geometric Mean (converted)",50.1 min
same,Tmax,"[2]; po, 75 mg, single oral dose 75 mg, Fed, N = 10",75.6 min
same,"% AUCex, Arithmetic Mean",[2]; [5],0.89%
same,"CL/F, Arithmetic Mean",[2]; [5],44.52 L/h
same,"CL/F, Geometric Mean",[2]; [5],42.44 L/h
same,"Cav, Arithmetic Mean",[2]; [5],77.4 ng/mL
same,"Cav, Geometric Mean",[2]; [5],73.6 ng/mL
same,"Cmax, Geometric Mean","[2]; single oral dose 75 mg, Fed (high-fat breakfast), N = 10, plasma",263.2 ng/mL
same,"% AUCex, Arithmetic Mean",[2]; [6],3.5%
same,"AUC(0-12), Geometric Mean",[2]; [6],767.4 ng·h/mL
same,"CL/F, Arithmetic Mean",[2]; [6],100.3 L/h
same,"CL/F, Geometric Mean",[2]; [6],97.59 L/h
same,"Cav, Arithmetic Mean",[2]; [6],33.0 ng/mL
same,"Cav, Geometric Mean",[2]; [6],32.0 ng/mL
